Source: ChEMBL document CHEMBL1201862, “PubChem BioAssay data set” (2004)
Calls of active or inactive are those of the source.

What was measured:
[1] = target: T1, Ubiquitin-conjugating enzyme E2 N (Homo sapiens, UniProt P61088); assay type: functional;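 also: Dose-response confirmation in a TR-FRET assay detecting UBC13-driven polyubiquitin chain formation, inhibition measured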
T1 sequence (P61088 whole entry): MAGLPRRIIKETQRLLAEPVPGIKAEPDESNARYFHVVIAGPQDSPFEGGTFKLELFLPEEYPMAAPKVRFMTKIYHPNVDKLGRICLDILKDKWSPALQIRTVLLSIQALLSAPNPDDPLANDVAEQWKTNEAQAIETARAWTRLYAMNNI

[2] = target: DNA dC->dU-editing enzyme APOBEC-3G (Homo sapiens, UniProt Q9HC16); assay: Dose Response confirmation of small molecule APOBEC3G DNA Deaminase Inhibitors via a fluorescence-based single-stranded DNA deaminase assay. [Related pubchem assays (depositor defined):AID493012, AID493028]; assay type: functional
Coagulation factor XII = target: T2, Coagulation factor XII (Homo sapiens, UniProt P00748); assay type: functional;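 also: activated factor XIIa alpha cleaving a fluorogenic AMC peptide substrate; inhibitor potency from loss of enzyme activity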
T2 sequence (P00748 whole entry): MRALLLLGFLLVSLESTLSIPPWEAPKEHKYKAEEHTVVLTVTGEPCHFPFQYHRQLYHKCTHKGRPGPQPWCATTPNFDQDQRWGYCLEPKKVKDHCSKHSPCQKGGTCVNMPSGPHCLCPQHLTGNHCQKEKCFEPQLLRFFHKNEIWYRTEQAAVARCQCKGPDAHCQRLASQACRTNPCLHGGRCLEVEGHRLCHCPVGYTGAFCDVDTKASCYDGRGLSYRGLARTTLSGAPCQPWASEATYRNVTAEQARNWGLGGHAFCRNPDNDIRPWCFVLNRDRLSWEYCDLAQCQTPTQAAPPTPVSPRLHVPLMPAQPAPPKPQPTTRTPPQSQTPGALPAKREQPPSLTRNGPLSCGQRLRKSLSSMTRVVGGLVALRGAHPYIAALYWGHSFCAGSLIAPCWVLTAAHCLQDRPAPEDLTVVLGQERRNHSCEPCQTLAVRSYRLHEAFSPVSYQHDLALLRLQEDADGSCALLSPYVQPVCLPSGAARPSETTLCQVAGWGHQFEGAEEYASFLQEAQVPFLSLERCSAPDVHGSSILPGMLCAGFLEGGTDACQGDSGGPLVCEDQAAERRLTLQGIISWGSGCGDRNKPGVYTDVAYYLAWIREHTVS

[3] = target: Glyceraldehyde-3-phosphate dehydrogenase (Homo sapiens, UniProt P04406)
HeLa = assay: ATP-based viability loss in HeLa cells – cell-based, CellTiter-Glo luminescence, cherry-pick samples, cytotoxicity control for MITF activator project, dose response (AID 540259); assay type: functional; conditions: Homo sapiens
[4] = target: T3, Endoribonuclease toxin MazF (Escherichia coli K-12, UniProt P0AE70); assay: activation of MazEF endoribonuclease cleavage – biochemical, fluorescence, single-stranded RNA substrate, uHTS hits, dose response (AID 588481); assay type: functional
T3 sequence (P0AE70 whole entry): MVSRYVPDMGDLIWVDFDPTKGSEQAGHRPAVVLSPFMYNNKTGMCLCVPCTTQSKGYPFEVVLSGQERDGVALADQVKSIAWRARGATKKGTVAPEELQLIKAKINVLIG

[5] = target: T3, Endoribonuclease toxin MazF; assay: substrate-only fluorescence increase artefacts – biochemical, single-stranded RNase substrate, counter-screen for MazEF activator project, dose response (AID 588502); assay type: functional
Protein RecA = target: T4, Protein RecA (Mycobacterium tuberculosis, UniProt P9WHJ3); assay: Fluorescence Cell-Free Homogeneous Dose Retest to Identify Inhibitors of RecA-Intein Splicing Activity. [Related pubchem assays (depositor defined):AID2097, AID2223, AID489010, AID492950]; assay type: functional
T4 sequence (P9WHJ3 whole entry): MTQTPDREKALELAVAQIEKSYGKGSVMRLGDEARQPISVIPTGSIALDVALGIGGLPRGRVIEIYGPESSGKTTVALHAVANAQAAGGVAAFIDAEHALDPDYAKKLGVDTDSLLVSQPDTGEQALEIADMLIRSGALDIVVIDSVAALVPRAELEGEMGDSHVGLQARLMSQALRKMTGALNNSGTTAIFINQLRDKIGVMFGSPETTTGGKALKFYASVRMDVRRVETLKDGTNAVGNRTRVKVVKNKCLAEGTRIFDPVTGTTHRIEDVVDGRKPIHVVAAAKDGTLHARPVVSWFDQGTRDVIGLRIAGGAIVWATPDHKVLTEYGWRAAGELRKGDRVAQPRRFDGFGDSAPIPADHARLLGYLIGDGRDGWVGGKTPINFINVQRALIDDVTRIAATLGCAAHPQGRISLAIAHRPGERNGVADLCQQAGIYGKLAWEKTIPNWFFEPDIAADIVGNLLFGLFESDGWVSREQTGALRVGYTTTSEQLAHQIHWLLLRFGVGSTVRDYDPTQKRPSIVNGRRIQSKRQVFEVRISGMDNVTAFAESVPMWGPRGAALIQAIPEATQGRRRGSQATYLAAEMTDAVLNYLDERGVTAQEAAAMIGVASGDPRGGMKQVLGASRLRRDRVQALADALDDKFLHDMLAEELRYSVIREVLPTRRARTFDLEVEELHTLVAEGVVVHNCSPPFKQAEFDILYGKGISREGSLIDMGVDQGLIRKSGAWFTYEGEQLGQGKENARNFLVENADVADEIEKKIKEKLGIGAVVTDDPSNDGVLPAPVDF

[6] = target: T5, Replicative DNA helicase DnaB (Mycobacterium tuberculosis, UniProt P9WMR3); assay: DnaB intein splicing inhibitors, dose response, biochemical, cell-free fluorescence (AID 449749); assay type: functional
T5 sequence (P9WMR3 whole entry): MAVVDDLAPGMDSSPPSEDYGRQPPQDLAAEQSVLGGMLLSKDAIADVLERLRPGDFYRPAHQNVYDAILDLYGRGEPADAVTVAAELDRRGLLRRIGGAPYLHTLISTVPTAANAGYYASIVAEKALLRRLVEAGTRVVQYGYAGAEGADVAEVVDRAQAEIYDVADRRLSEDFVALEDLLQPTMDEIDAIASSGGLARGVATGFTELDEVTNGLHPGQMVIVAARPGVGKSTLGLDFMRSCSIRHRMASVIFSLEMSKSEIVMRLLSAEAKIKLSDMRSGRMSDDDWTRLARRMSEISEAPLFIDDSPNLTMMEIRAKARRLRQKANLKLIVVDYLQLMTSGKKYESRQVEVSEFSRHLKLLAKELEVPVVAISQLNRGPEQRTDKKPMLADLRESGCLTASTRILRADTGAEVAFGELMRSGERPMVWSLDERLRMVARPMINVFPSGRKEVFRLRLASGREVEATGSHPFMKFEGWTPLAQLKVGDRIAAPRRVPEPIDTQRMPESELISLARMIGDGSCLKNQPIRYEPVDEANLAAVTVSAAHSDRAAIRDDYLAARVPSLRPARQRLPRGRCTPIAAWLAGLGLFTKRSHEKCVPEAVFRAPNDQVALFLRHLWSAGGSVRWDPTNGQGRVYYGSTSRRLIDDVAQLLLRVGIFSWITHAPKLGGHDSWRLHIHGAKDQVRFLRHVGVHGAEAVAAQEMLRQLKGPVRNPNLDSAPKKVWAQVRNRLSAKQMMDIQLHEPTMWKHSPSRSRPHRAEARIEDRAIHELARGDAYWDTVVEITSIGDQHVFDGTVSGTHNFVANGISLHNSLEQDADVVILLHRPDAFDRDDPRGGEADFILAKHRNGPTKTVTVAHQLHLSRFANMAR

Leucine aminopeptidase = target: T6, Leucine aminopeptidase (Plasmodium falciparum 3D7, UniProt Q8IL11); assay: P. falciparum M17LAP inhibitors, primary screen, biochemical, fluorogenic H-Leu-NHMec substrate, 1536-well (AID 1619); assay type: functional
T6 sequence (Q8IL11 whole entry): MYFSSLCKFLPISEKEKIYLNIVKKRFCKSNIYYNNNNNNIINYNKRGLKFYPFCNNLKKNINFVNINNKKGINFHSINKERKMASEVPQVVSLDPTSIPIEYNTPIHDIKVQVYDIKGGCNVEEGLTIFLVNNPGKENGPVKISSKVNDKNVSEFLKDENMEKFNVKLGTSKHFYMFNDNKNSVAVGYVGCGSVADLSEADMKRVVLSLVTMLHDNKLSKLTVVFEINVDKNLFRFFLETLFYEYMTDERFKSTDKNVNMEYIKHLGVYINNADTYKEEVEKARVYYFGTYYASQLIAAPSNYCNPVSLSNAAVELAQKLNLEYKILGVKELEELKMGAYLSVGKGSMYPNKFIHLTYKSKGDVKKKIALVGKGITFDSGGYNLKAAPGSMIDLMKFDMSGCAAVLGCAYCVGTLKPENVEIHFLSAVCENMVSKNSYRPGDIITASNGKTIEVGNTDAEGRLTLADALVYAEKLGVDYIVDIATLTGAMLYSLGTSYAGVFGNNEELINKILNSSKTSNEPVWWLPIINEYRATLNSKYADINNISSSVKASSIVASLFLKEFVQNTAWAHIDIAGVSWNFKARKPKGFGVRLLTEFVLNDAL

Cytochrome P450 3A4 [7] = target: T7, Cytochrome P450 3A4 (Homo sapiens, UniProt P08684);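 also: CYP3A4 tested as one member of a cytochrome P450 panel screen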
Cytochrome P450 3A4 [8] = target: T7, Cytochrome P450 3A4; remark: listed apart in the source
[9] = target: T8, Heat shock factor protein 1 (Mus musculus, UniProt P38532); assay: enhancement of HSF1-driven luciferase signal – cell-based, NIH3T3, luminescence, dose retest, confirmation (AID 435004); assay type: functional;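 also: stress induced by proteasome inhibitor MG132 added 30 min after compound; luciferase reporter driven by HSF1 response element in NIH3T3 cells; actives raise luminescence as potentiators of the MG132 stress response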
T8 sequence (P38532 whole entry): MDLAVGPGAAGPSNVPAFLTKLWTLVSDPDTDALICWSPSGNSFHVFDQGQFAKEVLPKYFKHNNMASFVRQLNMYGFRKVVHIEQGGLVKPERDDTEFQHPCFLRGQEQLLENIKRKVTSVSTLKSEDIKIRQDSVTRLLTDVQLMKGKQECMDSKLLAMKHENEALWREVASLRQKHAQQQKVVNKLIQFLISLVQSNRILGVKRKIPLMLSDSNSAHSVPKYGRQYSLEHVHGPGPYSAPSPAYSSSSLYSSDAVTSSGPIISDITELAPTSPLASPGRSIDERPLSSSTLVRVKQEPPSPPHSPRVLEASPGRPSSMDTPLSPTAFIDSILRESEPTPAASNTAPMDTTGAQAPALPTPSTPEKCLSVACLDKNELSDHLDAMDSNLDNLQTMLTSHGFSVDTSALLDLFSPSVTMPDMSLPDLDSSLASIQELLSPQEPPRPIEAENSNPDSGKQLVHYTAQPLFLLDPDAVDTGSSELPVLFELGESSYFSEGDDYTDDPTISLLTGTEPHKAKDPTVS

H4 = assay: Luminescence Cell-Based Dose Response HTS to Identify Activators of 5'UTR Stem-Loop Driven Prion Protein mRNA Translation in H4 Neuroglioblastoma Cells. [Related pubchem assays: 1829 (Project Summary), 1814 (Primary HTS)]; assay type: functional; conditions: Homo sapiens
[10] = Luminescence Cell-Based Dose Response HTS to Identify Activators of Luciferase Translation or Activity in H4 […] Cells. [Related pubchem assays: 1829 (Project Summary), 1814 (Primary HTS)]; assay type: functional

Glyceraldehyde-3-phosphate dehydrogenase, sequence (P04406 whole entry): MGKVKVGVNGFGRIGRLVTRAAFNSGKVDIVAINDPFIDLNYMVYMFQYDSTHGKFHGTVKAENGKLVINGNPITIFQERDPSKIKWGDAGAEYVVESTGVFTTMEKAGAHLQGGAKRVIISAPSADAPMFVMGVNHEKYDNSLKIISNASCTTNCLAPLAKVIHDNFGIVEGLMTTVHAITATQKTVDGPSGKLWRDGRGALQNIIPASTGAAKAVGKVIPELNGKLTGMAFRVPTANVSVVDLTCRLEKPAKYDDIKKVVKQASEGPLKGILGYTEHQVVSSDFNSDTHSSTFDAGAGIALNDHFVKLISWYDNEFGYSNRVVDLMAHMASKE
T7 sequence (P08684 whole entry): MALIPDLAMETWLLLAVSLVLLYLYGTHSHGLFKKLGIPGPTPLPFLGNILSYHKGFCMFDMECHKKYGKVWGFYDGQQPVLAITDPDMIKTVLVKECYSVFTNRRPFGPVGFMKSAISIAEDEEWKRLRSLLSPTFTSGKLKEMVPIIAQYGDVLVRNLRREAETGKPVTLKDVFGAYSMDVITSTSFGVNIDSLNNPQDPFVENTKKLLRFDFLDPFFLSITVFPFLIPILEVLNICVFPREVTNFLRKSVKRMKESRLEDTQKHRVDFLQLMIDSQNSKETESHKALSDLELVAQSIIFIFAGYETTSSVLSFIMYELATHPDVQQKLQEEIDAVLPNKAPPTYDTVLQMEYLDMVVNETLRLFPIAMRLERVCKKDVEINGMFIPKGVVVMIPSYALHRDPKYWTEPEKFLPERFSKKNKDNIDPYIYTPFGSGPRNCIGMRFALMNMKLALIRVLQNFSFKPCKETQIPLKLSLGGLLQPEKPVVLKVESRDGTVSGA
DNA dC->dU-editing enzyme APOBEC-3G, sequence (Q9HC16 whole entry): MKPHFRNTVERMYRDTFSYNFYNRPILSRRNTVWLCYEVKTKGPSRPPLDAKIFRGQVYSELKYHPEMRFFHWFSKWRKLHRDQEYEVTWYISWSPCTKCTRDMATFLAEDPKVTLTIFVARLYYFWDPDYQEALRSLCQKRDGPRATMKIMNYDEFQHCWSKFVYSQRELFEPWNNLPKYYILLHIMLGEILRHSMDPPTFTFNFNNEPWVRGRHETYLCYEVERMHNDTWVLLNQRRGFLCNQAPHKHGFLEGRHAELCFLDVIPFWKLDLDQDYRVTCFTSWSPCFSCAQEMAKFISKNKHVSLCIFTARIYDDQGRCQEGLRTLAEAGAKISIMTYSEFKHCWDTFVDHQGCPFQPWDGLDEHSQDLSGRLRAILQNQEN

N=C(N)Nc1ccc2[nH]c3c(c2c1)C[C@@]1(O)[C@H]2Cc4ccc(O)c5c4[C@@]1(CCN2CC1CC1)[C@H]3O5
IC50 [1]: > 20 µM (inactive) | IC50 [2]: 24.4 µM (active)

COCCN(C(=O)C1CC1)c1nnc(-c2ccc(C)cc2)s1
IC50 (Coagulation factor XII): > 50 µM (inactive)

CCN1CCN(C2=C(Cl)C(=O)N(c3cccc(C)c3)C2=O)CC1
IC50 [3]: > 50 µM (inconclusive)

CN(C)c1ccc(C(=S)N2CCN(c3ccc([N+](=O)[O-])cc3)CC2)cc1
IC50 (Coagulation factor XII): > 50 µM (inactive)

COc1ccc(NC(=O)CN(C)C(=O)CNC(=O)c2sc3ccccc3c2Cl)cc1
AC50 (HeLa): 41.6 µM (active)

CCOc1ccc(C(CC(=O)O)C(=O)O)cc1 (stereo not given)
IC50 [3]: > 100 µM (not active)

N#C/C(=C\C1=C(N2CCOCC2)C(=C/c2cccc([N+](=O)[O-])c2)/CC1)C(=O)Nc1ccccc1F
EC50 [4]: > 99 µM (inactive) | EC50 [5]: > 99 µM (inactive)

CC(=O)N1CCC2(CC1)C(C#N)=C(N)Oc1[nH]nc(CSc3ccc(C)cc3)c12
EC50 (Protein RecA): 2.9 µM (active) | AC50 [6]: 4.72 µM (active) | IC50 (Leucine aminopeptidase): 21.1 µM (active)

CSc1ccc(-c2nnn(Cc3ccc(C)cc3)n2)cc1
AC50 (HeLa): 98 µM (active)

Cc1oc(-c2cc(Cl)cc(Cl)c2)cc1C(=O)Nc1ccc(S(N)(=O)=O)cc1
IC50 [3]: > 100 µM (not active)

Cc1onc(-c2c(F)cccc2Cl)c1-c1nnc(-c2ccc(C(F)(F)F)cc2)o1
IC50 (Coagulation factor XII): > 50 µM (inactive)

CC1CCCC(C)N1C(=O)c1cc(-c2ccc3c(c2)OCO3)on1 (stereo not given)
AC50 (HeLa): > 350 µM (inactive)

Nc1ccccc1C#Cc1ccccc1
AC50 (Cytochrome P450 3A4 [7]): 15.8 µM (inconclusive) | AC50 (HeLa): > 350 µM (inactive) | AC50 (Cytochrome P450 3A4 [8]): 15.8 µM (inconclusive)

O=C(O)C1CCCCC1C(=O)Nc1ccc2c(c1)CCC2 (stereo not given)
IC50 (Leucine aminopeptidase): 9.16 µM (active) | EC50 [9]: > 260 µM (inactive)

N#C/C(=C\c1ccc([N+](=O)[O-])cc1)c1nc(C2CC2)cs1
EC50 [4]: 10.4 µM (active) | EC50 [5]: > 99 µM (inactive)

COc1ccc(C(=O)N/N=C\c2coc3ccc(C)cc3c2=O)cc1
EC50 [4]: > 99 µM (inactive) | EC50 [5]: > 99 µM (inactive)

CSc1nccc(N/N=C/c2ccccc2)n1
EC50 (H4): 2.55 µM (active) | EC50 [10]: 0.32 µM (active) | AC50 (HeLa): 100 µM (active)

CCOC(=O)c1c(/N=C/C2C(=O)NC(=O)NC2=O)sc2c1CCC2
EC50 [4]: > 99 µM (inactive) | EC50 [5]: > 99 µM (inactive)
